Reference: patent US20120189673A1, “POLYPEPTIDES AND USES THEREOF” (priority 2009, published 2012)

Columns and labels:
[1] = tested on: erythrocytes
Method: Hemolysis assay. EDTA-blood was centrifuged at 800 g for 10 min, whereafter plasma and buffy coat were removed. The erythrocytes were washed three times and resuspended in PBS, pH 7.4 to get a 5% suspension. The cells were then incubated with end-over-end rotation for 60 min at 37° C. in the presence of peptides (60 μM). 2% Triton X-100 (Sigma-Aldrich) served as positive control. The samples were then centrifuged at 800 g for 10 min and the supernatant was transferred to a 96 well microtiter plate. The absorbance of hemoglobin release was measured at λ 540 nm and is in the plot expressed as % of TritonX-100 induced hemolysis.

[2] = tested on: intrinsic pathway of coagulation in normal human plasma; experiment: Clotting assay: activated partial thromboplastin time (aPTT); assay type: biochemical
Method: (§1) Clotting assays. All clotting times were measured using an Amelung coagulometer. Activated partial thromboplastin time (aPTT) was measured by incubating the peptides diluted in sterile water at the indicated concentrations, with 100 μL citrated human plasma for 1 minute followed by the addition of 100 μL aPTT reagent (aPTT Automate, Diagnostica Stago) for 60 seconds at 37° C. Clotting was initiated by the addition of 100 μL of a 25-mM CaCl2 solution. In the prothombrin time assay (PT), clotting was initiated by the addition of 100 μL Thrombomax with calcium (PT reagent; Sigma-Aldrich). For measuring the thrombin clotting time (TCT), clotting was initiated by the addition of 100 μL Accuclot thrombin time reagent (TCT reagent; Sigma-Aldrich).

[3] = tested on: extrinsic pathway of coagulation in normal human plasma; experiment: Clotting assay: prothrombin time (PT); assay type: biochemical
Method: as §1

[4] = Properties stated for FFF21 (FIG. 56)
[5] = tested on: thrombin induced fibrin network formation in normal human plasma; experiment: Clotting assay: thrombin clotting time (TCT); assay type: biochemical
Method: as §1

[6] = tested on: E. coli LPS induced sepsis in wildtype C57BL/6 mice; experiment: LPS induced sepsis in wildtype mice, treatment with GHH25; assay type: in vivo, mouse
Description: Animal experiments. The original knockout mice 129/B6-HRG^tm1wja1 were crossed with C57BL/6 mice (Taconic) for 14 generations to obtain uniform genetic background. These HRG-deficient mouse strain was called B6-HRG^tm1wja1 following ILAR (Institute of Laboratory Animal Resources) rules. Wildtype C57BL/6 control mice and C57BL/6 Hrg−/− mice (8-12 weeks, 27+/−4 g) were bred in the animal facility at Lund University. C57BL/6 Hrg^−/−, lacks the translation start point of exon 1 of the Hrg gene. Animals were housed under standard conditions of light and temperature and had free access to standard laboratory chow and water. In order to induce sepsis, 18 µg/g Escherichia coli 0111:B4 LPS were injected intraperitoneally into C57BL/6 or C57BL/6 Hrg−/− mice, divided into weight and sex matched groups. Survival and status was followed during seven days.
For treatment with GHH25 peptide, 1 mg of the peptide (diluted in 10 mM Tris, pH 7.4) or buffer only was injected intraperitoneal 30 minutes after LPS-challenge and survival and status was then followed.
Animal experiments. The original knockout mice 129/B6-HRG^tm1wja1 were crossed with C57BL/6 mice (Taconic) for 14 generations to obtain uniform genetic background. These HRG-deficient mouse strain was called B6-HRG^tm1wja1 following ILAR (Institute of Laboratory Animal Resources) rules. […]

[7] = tested on: Human monocyte-derived macrophages; experiment: TNF-α release from human macrophages; assay type: cell-based; conditions: 10 ng/ml LPS with or without HRG (2 μM); GHH25 10 and 100 μM; 24 hours
Method: TNF-α release from human macrophages. Human monocyte-derived macrophages (hMDMs) were obtained from peripheral blood mononuclear cells (PBMCs) obtained from the blood of healthy donors using a Lymphoprep (Axis-Shield PoC AS) density gradient. PBMCs were seeded at concentrations of 3×10^6 cells/well into 24-well plates and cultured in RPMI1640 medium supplemented with 10% heat-inactivated autologous human plasma, 2 mM L-glutamine, and 50 μl/ml Antibiotic-Antimycotic (Gibco) in a humidified atmosphere of 5% CO2. After 24 h, non-adherent cells were removed and adherent monocytes were differentiated to macrophages for 10 days, with fresh medium changes every second day. […] After stimulation the supernatant was aspirated and TNF-α was measured using the TNF-α human ELISA kit (Invitrogen).

[8] = tested on: RAW macrophages; experiment: Nitric oxide induction in RAW macrophages by LPS with or without HRG; assay type: cell-based, murine; conditions: 24 hours
Method: (§2) Nitric oxide induction in RAW macrophages. Confluent cells were harvested and transferred to 96-wells plate (3.5×10^5/well). After adhesion cells were washed with phenol red-free DMEM (Gibco). E. Coli LPS (100 ng/ml), LL-37 (2 or 10 μM) or HRG (2 or 10 μM) was preincubated at 37° C. for 30 minutes and then transferred to the cells. For inhibition of NO induction, 5 µg/ml anti mouse TLR4 antibody, 10 or 100 µM GHH25 or 100 µg/ml heparin were used. The cells were stimulated for 24 hours and nitric oxide was determined using the Griess chemical method.
as §2, with “([…]).” for “(3.5×10^5/well).”, “For inhibition of NO induction, 5 µg/ml anti mouse TLR4 antibody, 10 or 100 µM GHH25 or 100 µg/ml heparin were used.” left out

[9] = LPS-binding slot-blot assay with iodinated LPS; parameters: species or system Escherichia coli; conditions: 2 and 5 μg HRG on nitrocellulose; pH 7.4 or pH 5.5, with or without 0.15M NaCl
Method: Radioiodination of heparin and LPS. The radioiodination of heparin (from porcine intestinal mucosa, Sigma-Aldrich) was performed as described previously. The iodination of LPS was performed as described by Ulevitch. 1 mg Escherichia coli 0111:B4 LPS was incubated in 50 mM p-OH benzimidate in borate buffer, pH 8, over night at 4° C., and then dialyzed against PBS, pH 7.4. LPS was then radiolabelled with ^125I using the chloramine T method, and unlabelled ^125I was then removed by dialysis.
Heparin and LPS-binding assay. 1, 2 and 5 μg of the synthetic peptides in 100 μl PBS pH 7.4 were applied onto nitrocellulose membranes (Hybond-C, Amersham Biosciences) using a slot-blot apparatus. Membranes were blocked for 1 h at room temperature with 2% bovine serum albumin in PBS pH 7.4 and then incubated with radiolabelled LPS (˜40 μg·mL^−1, 0.13×10^6 cpm·μg^−1) or radiolabelled heparin (˜10 μg·mL^−1, 0.4×10^6 cpm·μg^−1) for 1 h at room temperature in PBS, pH 7.4. […] A Bas 2000 radio-imaging system (Fuji Film, Tokyo, Japan) was used to visualize radioactivity.
Slot-blot assay. […] After LPS binding, membranes were washed 3 times, 10 min each time in the above buffers and visualized for radioactivity on Bas 2000 radioimaging system (Fuji, Japan). […]
Heparin and LPS-binding assay. […] A Bas 2000 radio-imaging system (Fuji Film, Tokyo, Japan) was used to visualize radioactivity.

Question: For `CC[C@H](C)[C@H](NC(=O)[C@H](CCCCN)NC(=O)[C@H](CCC(=O)O)NC(=O)[C@H](CCCCN)NC(=O)[C@H](CO)NC(=O)[C@H](CCCCN)NC(=O)[C@H](CCCNC(=N)N)NC(=O)[C@H](Cc1ccccc1)NC(=O)[C@H](Cc1ccccc1)NC(=O)[C@H](CC(=O)O)NC(=O)CNC(=O)[C@H](CC(C)C)NC(=O)[C@@H](N)CC(C)C)C(=O)NCC(=O)N[C@@H](CCCCN)C(=O)N[C@@H](CCC(=O)O)C(=O)N[C@@H](Cc1ccccc1)C(=O)N[C@@H](CCCCN)C(=O)N[C@@H](CCCNC(=N)N)C(=O)N[C@H](C(=O)N[C@H](C(=O)N[C@@H](CCC(N)=O)C(=O)N[C@@H](CCCNC(=N)N)C(=O)N[C@H](C(=O)N[C@@H](CCCCN)C(=O)N[C@@H](CC(=O)O)C(=O)N[C@@H](Cc1ccccc1)C(=O)N[C@@H](CC(C)C)C(=O)N[C@@H](CCCNC(=N)N)C(=O)N[C@@H](CC(N)=O)C(=O)N[C@@H](CC(C)C)C(=O)N[C@H](C(=O)N1CCC[C@H]1C(=O)N[C@@H](CCCNC(=N)N)C(=O)N[C@H](C(=O)N[C@@H](CCC(=O)O)C(=O)N[C@@H](CO)C(=O)O)[C@@H](C)O)C(C)C)[C@@H](C)CC)C(C)C)[C@@H](C)CC` [LL-37], which “doses at which erythrocytes were readily permeabilized” value [1] is on record?
Answer: The value was greater than 6 µM.

Question: Which “activated partial thromboplastin time (aPTT)” value [2] does the source give for “FFFAKLNCRLYRKANKSSKLV [FFF21, Antithrombin III-derived peptide, aa 153-173 of antithrombin III, P01008]” here?
Answer: Its value is “impairs the intrinsic pathway of coagulation”.

Question: And the “prothrombin time (PT)” value [3]?
Answer: Its value is “not significantly affected”.

Question: And the “antibacterial and antiinflammatory properties” value [4]?
Answer: The value was “antibacterial and antiinflammatory properties”.

Question: What about the “thrombin clotting time (TCT)” value [5] of the same molecule?
Answer: The value was “not significantly affected”.

Question: For GHHPHGHHPHGHHPHGHHPHGHHPH [GHH25], which survival ([6]; 1 mg GHH25 i.p. 30 minutes after E. coli LPS, followed seven days, p=0.03) is on record?
Answer: The survival was “significantly increased survival”.

Question: What about the health status ([6]; LPS induced sepsis, treatment with GHH25) of the same molecule?
Answer: The health status was “Improved health status”.

Question: What about the “TNF-α (HRG and LPS induced responses)” value [7] of the same molecule?
Answer: The value was “inhibits HRG and LPS induced responses”.

Question: What about the “LPS and HRG mediated NO release” value ([8]; 100 ng/ml LPS with or without HRG (2 μM), GHH25 10 and 100 μM) of the same molecule?
Answer: The value was “significantly decreased”.

B1: HRG: 67 kDa plasma protein histidine-rich glycoprotein, purified from human serum (protein, UniProt P04196 19-525, looked up)
Histidine-rich glycoprotein: VSPTDCSAVEPEAEKALDLINKRRRDGYLFQLLRIADAHLDRVENTTVYYLVLDVQESDCSVLSRKYWNDCEPPDSRRPSEIVIGQCKVIATRHSHESQDLRVIDFNCTTSSVSSALANTKDSPVLIDFFEDTERYRKQANKALEKYKEENDDFASFRVDRIERVARVRGGEGTGYFVDFSVRNCPRHHFPRHPNVFGFCRADLFYDVEALDLESPKNLVINCEVFDPQEHENINGVPPHLGHPFHWGGHERSSTTKPPFKPHGSRDHHHPHKPHEHGPPPPPDERDHSHGPPLPQGPPPLLPMSCSSCQHATFGTNGAQRHSHNNNSSDLHPHKHHSHEQHPHGHHPHAHHPHEHDTHRQHPHGHHPHGHHPHGHHPHGHHPHGHHPHCHDFQDYGPCDPPPHNQGHCCHGHGPPPGHLRRRGPGKGPRPFHCRQIGSVYRLPPLRKGEVLPLPEANFPSFPLPHHKHPLKPDNQPFPQSVSESCPGKFKSGFPQVSMFFTHTFPK
Question: With B1 as the molecule, how does the “binding of iodinated LPS” value [9] read?
Answer: The value was “LPS-binding”.

Question: What about the “LPS mediated NO release” value ([8]; 100 ng/ml LPS, HRG 2 and 10 μM, n=6, p=0.001) of the same molecule?
Answer: The value was “significantly increased”.
